Entries after “also recorded” stand apart in the source; their conditions may differ.
Columns and labels:
Assay type in all cases: in vivo
morphine-dependent mice = assay: Naloxone-precipitated withdrawal jumping in morphine-dependent mice
Experimental: After naloxone administration, mice were placed in clear plastic cylinders (10 cm in diameter and 40 cm in height, and the number of jumps during the following 15 minutes were counted. Naloxone precipitated jumping behavior is a robust response reflecting physical dependence on opioids observed across strains of inbred mice (Kest, B., et al., Neuroscience 2002. 115(2): 463-469).
(§1) In some experiments the selective 5-HT3 antagonist ondansetron (Sigma) was administered. For systemic administration, ondansetron was injected subcutaneously in […] of 0.9% NaCl to some groups of mice. […] For intracerebroventricular (i.c.v.) administration, mice were briefly anesthetized with inhaled isoflurane. A 30 gauge ½ inch needle was used to pierce the skull and enter the ventricles using an approach described previously (Pedigo, N. W. et al. J Pharmacol Exp Ther, 1975. 193(3): p. 845-852). Once inserted, 5 μl of injectate was slowly administered using a microsyringe, and the animals were used within 20 minutes after the injection.

C57BL/6J mice [1] = assay: Opioid dependence related hyperalgesia, mechanical nociceptive threshold (von Frey filaments)
Experimental: as §1
In these experiments, mice were placed on wire mesh platforms in clear cylindrical plastic cylinders. After 15 minutes of acclimation, fibers of sequentially increasing stiffness were applied to the plantar surface of one hind paw, pressed upward to cause a slight bend in the fiber and left in place 5 sec. Withdrawal of the hind paw from the fiber was scored as a response. When no response was obtained the next stiffest fiber in the series was applied to the same paw; if a response was obtained a less stiff fiber was applied. Testing proceeded in this manner until 4 fibers had been applied after the first one causing a withdrawal response allowing the estimation of the mechanical withdrawal threshold (Poree, L. R., et al., Anesth Analg, 1998. 87(4): p. 941-948).

C57BL/6J mice [2] = assay: Conditioned place preference (CPP) associated with morphine
Experimental: The CPP experiments were performed using Place Preference System (MED Associates Inc., St. Albans, Vt.), which consists of three compartments; two outer compartments for active association and a middle neutral compartment. One association compartment is constructed of white opaque plastic walls with a floor made of metal rods while the other compartment is made of black opaque plastic walls with a metal mesh floor. The smaller middle neutral compartment is made of gray opaque plastic walls and floor. Experiments were conducted in a dimly lit room with homogenous lighting (˜20 lux). The place preference apparatus is equipped with motion photo-sensors with data recorded via a computer running MED PC software (MED Associates Inc, Vt.). C57B1/6J mice (8 to 12 weeks old) were used in all experiments, which were carried out during the second half of the light phase between 13:00-18:00 hr. On Day 0, the mice were acclimated to the test room and the time spent in each compartment was recorded (pre-conditioning report). Any mouse that spent more than 75% of the time in either of the association compartments was excluded. On the following day each mouse was randomized to a control or drug group and assigned to either the white or black association compartments in a counter-balanced fashion (n=10-15 per group). […] Twenty-five minutes after injection(s), each mouse was placed into its assigned association compartment for 25 min without access to the other compartments. On Days 2, 4 and 6, the mice received saline injections and were placed in the alternative compartment after 25 min. On Day 7, mice were placed in the middle neutral compartment of the place preference apparatus with full access to the other two compartments and assessed for the length of time spent in each compartment (post-conditioning report). The percentage of time spent in each association compartment was calculated relative to the total time spent in both association compartments.

Htr3b mRNA = Htr3b mRNA expression in brain after chronic morphine (specificity control); conditions: brain tissue, four days of morphine versus saline, C57Bl/6J and 129/SvlmJ mice
healthy male volunteers = assay: Acute naloxone-precipitated opioid withdrawal in human volunteers after ondansetron pretreatment (OOWS, SOWS)
From the text: Eight healthy male volunteers underwent an acute precipitated narcotic drug withdrawal protocol as previously described (Compton, P., et al., Pharmacol Biochem Behav, 2004. 77(2): p. 263-268) with or without ondansetron pretreatment using a randomized double-blinded placebo-controlled crossover study design on two separate occasions. Test sessions for each individual subject were separated by at least seven days. Female volunteers were excluded from the study due to modulation of opioid response by menstruation cycles (Hoehe, M., Psychoneuroendocrinology, 1988. 13(4): p. 339-344). The human experimental protocol was approved by the Institutional Review Board (Stanford University). Each volunteer provided written informed consent prior to study enrollment, and the study was registered in the clinicaltrials.gov database (identifier NCT00661674).
All study sessions were conducted by a blinded research assistant (ND) and supervised by an un-blinded physician (LC) who administered the study medication and monitored heart rate, blood pressure and arterial oxygenation throughout the study. The subjective opioid withdrawal scale (SOWS) and objective opioid withdrawal scale (OOWS) were completed after establishing intravenous access and before administration of study medications, as originally described by Handelsman et al (Handelsman, L., et al., Am J Drug Alcohol Abuse, 1987. 13(3): p. 293-308). All OOWS measurements were obtained by the same blinded research assistant (ND). Ondansetron (Bedford Laboratories, Bedford, Ohio) 8 mg or placebo (0.9% saline solution, Hospira Inc., Lake Forest, Ill.) was administered in a double-blinded fashion as an IV bolus. […] Patients remained in the lab under observation for 105 minutes and were offered music or video entertainment and caffeine-free meals or snacks ad lib during this period of time. After 105 minutes, the patient's vital signs and OOWS and SOWS were reassessed. […] Vital signs, SOWS and OOWS were administered five minutes and fifteen minutes after the naloxone administration.
Animal behavioral data was analyzed using one or two-way ANOVA with post-hoc Tukey testing or, for conditioned place preference data with t-testing. The outcome measures of interest between the placebo- and ondansetron-treated groups were compared using paired t test and the Wilcoxon Signed Rank test where appropriate. Normal distribution was determined using QQ plots and the Kolmogorov-Smirnov test. Analyses were performed with SAS 9.1 statistical package (Cary, Ill.) with p<0.05 considered statistically significant.

male volunteers = assay: Naloxone-induced withdrawal in human volunteers, palonosetron alone or with hydroxyzine; conditions: palonosetron 0.75 mg IV alone, 12 male volunteers
Experimental: In these studies, palonosetron (a 5-HT3 antagonist) was administered alone, or in combination with a clinically available antihistamine (hydroxyzine) to human volunteers.

[3] = ondansetron 8 mg IV 30 minutes prior to morphine 10 mg/70 kg IV, naloxone 120 minutes after morphine, versus placebo

`CN1CC[C@]23c4c5ccc(O)c4O[C@H]2[C@@H](O)C=C[C@H]3[C@H]1C5` [morphine] was tested, and the “jumps in the 15 minute period following naloxone administration” value (morphine-dependent mice; BUB/BnJ mice made dependent on morphine over a 4-day period) was “over 100”, the “jumps in the 15 minute period following naloxone administration” value (morphine-dependent mice; SM/J mice made dependent on morphine over a 4-day period) was “one” and the “hyperalgesia after chronic morphine treatment” value (C57BL/6J mice [1]; C57BL/6J mice, four day morphine protocol) was “caused hyperalgesia”. The “mean difference between pre and post conditioning percentage of time spent in the compartment associated with drug” value (C57BL/6J mice [2]; morphine 5 mg/kg i.p., placed in conditioning chamber 25 min after injection) was 21.29% and the “expression of the Htr3b gene” value (Htr3b mRNA) was “not altered”.
In the case of `Cc1nccn1CC1CCc2c(c3ccccc3n2C)C1=O` (stereo not drawn) [ondansetron], the naloxone-precipitated withdrawal response (morphine-dependent mice; C57BL/6J mice, ondansetron 1 mg/kg with each morphine dose during 4-day protocol, tested 18 hours after final dose (FIG. 3B)) is reported as “diminished the naloxone-precipitated withdrawal response”, the “inhibition of naloxone-precipitated withdrawal” value (morphine-dependent mice; morphine-dependent C57BL/6J mice, ondansetron 1 mg/kg given acutely) is reported as “not able to effectively inhibit withdrawal” and the naloxone-precipitated jumping behavior (morphine-dependent mice; morphine-dependent C57BL/6J mice, ondansetron i.c.v. before naloxone (FIG. 3C)) is reported as “profoundly blocked; also recorded: statistically significant and dose-dependent reduction”. For the same molecule, the naloxone-induced jumping (morphine-dependent mice; morphine-dependent C57BL/6J mice, ondansetron s.c. once, range of doses, 30 minutes prior to testing (FIG. 3A)) was “significantly reduced; also recorded: statistically significant and dose-dependent reduction”, the “pain sensitivity / baseline nociceptive thresholds” value (C57BL/6J mice [1]; control mice not treated with morphine, ondansetron 30 minutes prior to threshold assessment) was “no effect on pain sensitivity; also recorded: did not alter baseline nociceptive thresholds” and the “hyperalgesia (mechanical nociceptive sensitization) during morphine abstinence” value (C57BL/6J mice [1]; morphine-dependent mice, 18 hours after last morphine dose, ondansetron 30 minutes prior to threshold assessment (FIG. 4)) was “reversed the hyperalgesia; also recorded: dose-dependently reversed”. For the same molecule, the “mean difference between pre and post conditioning percentage of time spent in the compartment associated with drug” value (C57BL/6J mice [2]; ondansetron 1 mg/kg in addition to morphine 5 mg/kg, i.p.) was 0.40%, the “place preference associated with morphine administration” value (C57BL/6J mice [2]; ondansetron 1 mg/kg plus morphine 5 mg/kg) was “completely blocked” and the “decrease in mean OOWS score” value (healthy male volunteers; [3]) was 76.4%±22.6. For the same molecule, the “mean decrease in the subjective symptoms (SOWS score)” value (healthy male volunteers; [3]) was 4.1%±62.5, the “individual OOWS signs manifested by the volunteers” value (healthy male volunteers; ondansetron 8 mg IV pre-treatment, 12 of the 13 measured signs manifested) was “decreased all 12 of these individual signs” and the “objective signs of opioid withdrawal in affected subjects” value (healthy male volunteers; ondansetron 8 mg IV pre-treatment, seven of 8 subjects developed signs) was “reduced these signs in all seven affected individuals”.
In the case of `O=C1c2cccc3c2[C@H](CCC3)CN1[C@@H]1CN2CCC1CC2` [palonosetron], the “naloxone-induced withdrawal symptoms relative to placebo control” value (male volunteers) is reported as “reduced the naloxone-induced withdrawal symptoms”.

Source: patent US9226918B2, “Methods and compositions for treating or preventing narcotic withdrawal symptoms” (The Board of Trustees of the Leland Stanford Junior …, priority 2008, dated 2016)
